What was measured:
OA-HACs = experiment: PGE2 EIA in OA-HAC culture supernatant; format: cell-based, human; details: three individual OA-HAC donors, 100 nM peptide, 24 h (Figure 2F)
Method: Figure 2 Bioactivity of BMP7-derived peptides p[63−82] and p[113−132] on OA-HACs Complete peptide library screening quantitative real-time PCR dataset for peptides p[63−82] and p[113−132] is presented. (A) SOX9, COL2A1, and NKX3-2 mRNA expression in the 18 OA-HAC pool exposed to 1,000, 100, 10, or 1 nM of peptide p[63−82] and p[113−132] is shown and presented relative to control (black bars) and alongside full-length BMP7 (white bars). (B) Similar to (A) but for chondrocyte hypertrophy-associated genes RUNX2, COL10A1, and ALPL. (C) Similar to (A) but for cartilage extracellular matrix remodeling-associated genes MMP13 and ADAMTS5 and inflammation-related genes COX-2 and IL-6. […] (G) In the same OA-HAC pool of 18 OA-HAC donors from the peptide library screening, sequence dependency of peptides p[63−82] and p[113−132] was determined by exposing the OA-HAC pool to scrambled versions of peptides p[63−82] and p[113−132] […] Error bars represent mean ± SEM, and statistical significance for peptide conditions or BMP7 versus control condition as determined by unpaired two-tailed Student’s t test is represented as ∗p < 0.05, ∗∗p < 0.01, and ∗∗∗p < 0.001.
PGE2 levels were determined in the culture supernatant. PGE2 concentration was determined by a standardized enzyme immunoassay (EIA) according to the manufacturer’s protocol (Cayman Chemical).

rat MMT model = experiment: Rat medial meniscal tear (MMT) model, histopathological scoring of knee joints; format: in vivo; details: for histology of medial tibia plateau (toluidine blue), cartilage-degenerative changes: 100 ng in 50 μL saline intra-articular, two times per week from 1 week post-surgery, 10 rats per group (Figure 7A); for total joint score: versus saline (Figure 7E)
Method: We next tested whether peptide p[63−82] has the potency to delay the progression of trauma-induced cartilage degeneration in the rat MMT model.[34]^,[35] MMT damage was unilaterally initiated. Starting at 1 week post-MMT surgery, rats were two times per week intra-articularly injected with saline, 100 ng peptide p[63−82] in saline, or 100 ng scrambled peptide p[63−82] in saline. At 4 weeks post-MMT surgery, rats were sacrificed for histopathological scoring of the MMT knee joints. […] However, cartilage-degenerative changes were less apparent in the p[63−82] group (Figure 7A, middle panel). […] The femoral compartment also developed cartilage degeneration but less pronounced. This compartment is also more variable in its degenerative changes.[35] […] Cartilage-degeneration scores in zones 2 and 3 were generally low, as is known for the rat MMT model.[35] […] Other scored histopathological items can be found in Figure S5.
Figure 7 BMP7-derived peptide p[63−82] in rat MMT model The potency of BMP7 peptide p[63−82] to delay the progression of trauma-induced cartilage degeneration was tested in the rat MMT model. 1 week post-MMT-surgery, rats were two times per week intra-articularly injected with saline, 100 ng peptide p[63−82] in saline, or 100 ng scrambled peptide p[63−82] in saline (10 rats per group). All injection volumes were 50 μL. At 4 weeks post-MMT surgery, rats were sacrificed for histopathological scoring of the MMT knee joints. (A) Representative micrographs of toluidine blue-stained sections of medial aspects of the MMT knee joints. Conditions are indicated. (B) Medial tibia cartilage-degeneration scores. (C) Medial femur cartilage-degeneration scores. (D) Medial tibia cartilage-degeneration depth ratios. Scores and ratios are shown for zones 1, 2, and 3 individually.[35] The total scores/ratio are cumulative for zone 1, 2, and 3. (E) Total joint scores. Individual data points represent individual rats. Error bars represent mean ± SEM. Statistical differences were calculated between groups (Mann-Whitney U test), and ∗p < 0.05, ∗∗p < 0.01, and ∗∗∗p < 0.001.
The study was conducted via a contract research project at Bolder BioPATH (Boulder, CO, USA); study designs and animal usage were approved by their Institutional Animal Care and Use Committee (IACUC) prior to study initiation (IACUC protocols BBP13-029 and BBP12-004). Animal care, including room, cage, and equipment sanitation, conformed to accepted guidelines cited in the Guide for the Care and Use of Laboratory Animals (the Guide; 2011) and the applicable Bolder BioPATH standard operating procedures (SOPs). Male Lewis rats (n = 48; ∼283 g; Envigo RMS, Indianapolis, IN, USA) underwent a unilateral MMT on study day 0, as established earlier by Bendele et al.[59]^,[60] Rats were intra-articularly injected on days 7, 10, 14, 17, 21, and 24 with saline (0.9% NaCl, 50 μL/injection/animal), peptide p[63−82] (100 ng [in 50 μL saline]/injection/animal), or scrambled peptide p[63−82] (100 ng [in 50 μL saline]/injection/animal). The animals were euthanized for necropsy 28 days post-surgery.[59]^,[60] Right (surgery) knees from all animals were collected, trimmed of muscle (patella removed), and placed in 10% neutral-buffered formalin and then transferred to 70% ethanol for processing for microscopy. Operated joints were cut into two approximately equal halves in the frontal plane and embedded in paraffin. One section was cut from each knee and stained with toluidine blue. The worst-case scenario for the two halves on each slide was determined and used for evaluation. The tissues were analyzed microscopically by a veterinary pathologist as described earlier[35] (Tables S4–S13).

[1] = 100 ng intra-articular two times per week, 4 weeks (Figure 7D)
[2] = 100 ng intra-articular two times per week, 4 weeks (Figures 7B, 7C)
[3] = 100 ng intra-articular two times per week, 4 weeks

Substance	prostaglandin E2 (PGE2) levels in culture supernatant (OA-HACs)	histology of medial tibia plateau (toluidine blue), cartilage-degenerative changes (rat MMT model; 4 weeks)	medial femur cartilage-degeneration score, zone 1, versus saline (rat MMT model; 100 ng intra-articular two times per week, 4 weeks (Figure 7C))	depth ratio of tibia cartilage degeneration, zone 1, versus saline (rat MMT model; [1])	total depth ratio score of tibia cartilage degeneration, versus saline (rat MMT model; [1])	cartilage-degeneration scores, p[63-82] versus scrambled p[63-82] (rat MMT model; [2])	combined (total) tibia and femur cartilage-degeneration scores, versus saline (rat MMT model; [2])	medial tibia cartilage-degeneration score, zone 1, versus saline (rat MMT model; 100 ng intra-articular two times per week, 4 weeks, Mann-Whitney U test (Figure 7B))	total joint score (rat MMT model; [3])	total joint score (rat MMT model; 100 ng intra-articular two times per week, 4 weeks, listed as p[62−83])	cartilage-degeneration scores of tibia or femur in any of the 3 zones, versus saline (rat MMT model; [2])
H-AAYYSEGESAFPLNSYMNAT-OH [p[63−82]]	significant decrease	less apparent	trend toward a statistically significant lower	significantly lower	significantly lower	did not reveal differences that were statistically significant	significantly lower	significantly lower	significantly lower	significantly improve	–
H-SEASPAMYYLNATANFYESG-OH [scrambled p[63−82], scrambled version of peptide p[63−82], reference compound]	–	diminished toluidine blue staining and lower chondrocyte cellularity at the lateral side of the medial tibia plateau, as well as cartilage degeneration	–	–	–	–	Neither was there a significant difference	–	in between the values for saline and p[63−82] peptide but was not statistically different compared to either one of the saline or p[63−82] conditions	–	no statistically significant differences
H-SVLYFDDSSNVILKKYRNMV-OH [p[113−132]]	significant decrease	–	–	–	–	–	–	–	–	–	–
